Data reported in paper PMC6154719 (Molecules : A Journal of Synthetic Chemistry and Natural …, 2017).

How the values were obtained:
Format in all cases: in vitro ADME
SULT = SULT activity in human liver subcellular fraction; settings: 100 µM sesquiterpene, control 2.73 ± 0.18
Experimental: (§1) Enzyme activities were assayed in human and rat liver cytosolic and microsomal fractions. The enzyme assays (each performed in 4–8 replicates) were repeated three times (HPLC measurement of CYP activities was repeated only twice, Table 3). Inhibition studies were carried out by incubation of specific substrates in the presence of sesquiterpenes (in the range 0–100 µM).
(§2) The assays of all other enzymes were based on spectrophotometric detection of product formed or detection of decreasing substrate/cofactor levels using microplate reader Tecan Infinite M200 in cytosolic or microsomal fractions. Enzyme activities were determined using slight modifications of previously-published methods: carbonyl reducing enzymes (AKR1A, AKR1C, CBR1 [45], NQO1 [46]), UDP-glucuronosyltransferase (UGT [47]), sulfotransferase (SULT [48]), and cytosolic glutathione-S-transferase (GST [49]).
(§3) Sesquiterpenes CNER, TNER and FAR, non-volatile liquids, were pipetted, and proper concentration was calculated according to density. All compounds were dissolved in DMSO. The final solvent concentration in the inhibition assays was 1%, which had no effect on the enzyme activity (data not shown). Non-enzymatic interference of sesquiterpenes with some compounds in the reaction mixtures (e.g., fluorescence enhancing or quenching) was considered and excluded. All experiments were performed in three replicates, if not stated otherwise.
(§4) CNER, TNER and FAR at a fixed concentration of 100 µM were screened for inhibition of cytosolic AKR1A1, AKR1C, CBR1, NQO1, SULT, and GST, and microsomal CYPs and UGT. The degree of inhibition caused by sesquiterpenes was compared with non-inhibited control reactions, which contained solvent without sesquiterpenes.

UGT = UGT activity in rat liver subcellular fraction; settings: 100 µM sesquiterpene, control 16.2 ± 0.98
Experimental: as §1, §2, §3, §4

CYP2B/3A = CYP2B/3A (BROD activity, benzyloxyresorufin O-debenzylation) in rat liver microsomes; settings: for IC50: probe benzyloxyresorufin; for Specific Activity, CYP2B/3A (BROD activity): in the presence of 100 µM sesquiterpene, control 1.74 ± 0.02
Experimental: as §1
Enzyme activities of individual CYP forms were measured according to established protocols. The following microsomal CYP activities were tested: CYP2A6, coumarin 7-hydroxylation; CYP2B6, 7-ethoxy-4-(trifluoromethyl)coumarin 7-deethylation, CYP2C9, diclofenac 4′-hydroxylation, CYP2C19 assay, S-mephenytoin 4′-hydroxylation, CYP2D6 on bufuralol 1′-hydroxylation, CYP2E1, chlorzoxazone 6-hydroxylation and CYP3A4, testosterone 6β-hydroxylation, and midazolam 1′-hydroxylation. Activities were measured using the Prominence HPLC system (Shimadzu, Kyoto, Japan), equipped with a LiChroCART 250-4 LiChrospher 100 RP-18 column or Chromolith®HighResolution RP-18 end-capped column (Merck, Darmstadt, Germany) and UV or fluorescence detection, according to the cited literature. Further incubation details are described either in the corresponding references, as well as in the papers from this laboratory e.g., [42, 43, 44]. CYP1A2, 7-ethoxyresorufin O-deethylation, and CYP3A4/2B6 (human), CYP2B1 (rat), benzyloxyresorufin O-debenzylation were measured using the microplate reader Tecan Infinite M200 (Tecan Group; Mannedorf, Switzerland).
as §3, §4
The concentration of sesquiterpenes required for 50% inhibition of enzyme activity, the IC50 value, was determined. Their final concentrations in the reaction mixture were proposed to cover the entire inhibitory range of these compounds (1–100 µM). The IC50 values for each sesquiterpene were determined by plotting sigmoidal dose response curves of specific enzyme activity vs. logarithm of sesquiterpene concentration using GraphPad Prism version 6.07 for Windows (GraphPad Software Inc., La Jolla, CA, USA).
The kinetic inactivation study of the CYP1A2 (EROD activity) and CYP2B/3A (BROD activity), both in rat and human, with TNER, was performed to find out the mechanism of enzyme inhibition by this sesquiterpene. Mechanism of EROD and BROD inhibition was tested at the final ethoxyresorufin or benzyloxyresorufin concentrations 0.5–5.0 µM. The concentration of TNER was 5.0 µM.
Experimental data were fitted to the Michaelis-Menten equation, basic kinetic parameters were determined using the program GraphPad Prism version 6.07 for Windows. The type of inhibition was estimated using a Lineweaver-Burk (double-reciprocal) plot.

AKR1C = AKR1C activity in human liver subcellular fraction; settings: 100 µM sesquiterpene, control 23.5 ± 2.4
Experimental: as §1, §2, §3, §4

GST = GST activity in rat liver subcellular fraction; settings: 100 µM sesquiterpene, control 350 ± 8
Experimental: as §1, §2, §3, §4

CBR1 [1] = target: T1, CBR1 (Homo sapiens, UniProt P16152); assay: CBR1 activity in human liver subcellular fraction; settings: 100 µM sesquiterpene, control 6.62 ± 1.84
T1 construct: Frozen liver (both rat and human) was thawed; from tissue; host or cells: human liver cytosolic fraction
T1 sequence (P16152 1-277): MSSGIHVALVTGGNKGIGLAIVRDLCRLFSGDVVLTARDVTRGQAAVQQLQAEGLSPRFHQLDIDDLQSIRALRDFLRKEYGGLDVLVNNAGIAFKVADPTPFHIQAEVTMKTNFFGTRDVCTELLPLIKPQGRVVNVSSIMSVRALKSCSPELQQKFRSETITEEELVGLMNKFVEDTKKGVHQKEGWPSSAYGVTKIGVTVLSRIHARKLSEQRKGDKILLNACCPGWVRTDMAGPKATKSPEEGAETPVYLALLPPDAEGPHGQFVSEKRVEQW
Experimental: as §1, §2, §3, §4

CBR1 [2] = target: T2, CBR1 (Rattus norvegicus, UniProt P47727); assay: CBR1 activity in rat liver subcellular fraction; settings: 100 µM sesquiterpene, control 21.7 ± 1.6
T2 construct: Frozen liver (both rat and human) was thawed; from tissue; host or cells: rat liver cytosolic fraction
T2 sequence (P47727 1-277): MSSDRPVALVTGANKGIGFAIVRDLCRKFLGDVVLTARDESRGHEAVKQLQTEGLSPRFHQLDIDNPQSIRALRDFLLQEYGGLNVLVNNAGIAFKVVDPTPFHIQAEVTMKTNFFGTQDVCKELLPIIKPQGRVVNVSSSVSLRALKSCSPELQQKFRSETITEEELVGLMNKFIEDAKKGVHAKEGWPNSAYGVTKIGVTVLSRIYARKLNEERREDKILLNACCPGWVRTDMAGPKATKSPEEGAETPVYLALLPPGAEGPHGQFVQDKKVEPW
Experimental: as §1, §2, §3, §4

Row | SMILES | Specific activity, SULT (SULT) | Specific activity, UGT (UGT) | IC50 (CYP2B/3A; rat liver microsomes) | Specific Activity, CYP2B/3A (BROD activity) (CYP2B/3A; rat liver microsomes) | Specific activity, AKR1C (AKR1C) | Specific activity, GST (GST) | Specific activity, CBR1 (CBR1 [1]) | Specific activity, CBR1 (CBR1 [2]) | K’M (CYP2B/3A; rat liver microsomes, benzyloxyresorufin 0.5–5.0 µM in the presence of TNER 5 µM, KM without TNER 0.74 ± 0.12) | V’MAX (CYP2B/3A; rat liver microsomes, benzyloxyresorufin 0.5–5.0 µM in the presence of TNER 5 µM, VMAX without TNER 7.04 ± 0.35) | type of inhibition, BROD activity (CYP2B/3A; rat microsomes, 5 µM TNER, benzyloxyresorufin 0.5–5.0 µM)
1 | CC(C)=CCC/C(C)=C/CC/C(C)=C/CO [FAR, farnesol] | 2.72 ± 0.23 nmol/mg/min | 14.3 ± 3.15 nmol/mg/min | 4.43 µM | 0.212 ± 0.003 pmol/mg/min | 24.0 ± 1.5 nmol/mg/min | 345 ± 20 nmol/mg/min | 6.83 ± 0.70 nmol/mg/min | 21.1 ± 1.4 nmol/mg/min | – | – | –
2 | C=CC(C)(O)CC/C=C(\C)CCC=C(C)C (stereo not drawn) [TNER, trans-nerolidol] | 3.20 ± 0.26 nmol/mg/min | 16.4 ± 2.46 nmol/mg/min | 5.11 µM | 0.153 ± 0.008 pmol/mg/min | 21.4 ± 1.0 nmol/mg/min | 354 ± 37 nmol/mg/min | 5.67 ± 0.67 nmol/mg/min | 20.5 ± 1.6 nmol/mg/min | 1.26 ± 0.39 µM | 0.81 ± 0.09 nM/min | non-competitive
3 | C=CC(C)(O)CC/C=C(/C)CCC=C(C)C (stereo not drawn) [CNER, cis-nerolidol] | 3.12 ± 0.29 nmol/mg/min | 15.9 ± 1.11 nmol/mg/min | 6.47 µM | 0.331 ± 0.009 pmol/mg/min | 22.7 ± 1.5 nmol/mg/min | 334 ± 22 nmol/mg/min | 7.17 ± 0.56 nmol/mg/min | 19.5 ± 1.4 nmol/mg/min | – | – | –
